# From ChEMBL document CHEMBL1201862, “PubChem BioAssay data set” (2004)
#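 In this assay, cells in 96-well plates receive the compound at five concentrations for 48 hours. Endpoints are linearly interpolated between the surrounding concentrations. The concentration for 50% growth inhibition is given as GI50.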 Active and inactive are the calls of the source. Rule as the data show it: active = GI50 up to about 1.1 µM and inactive = higher.
# How the values were obtained:
# Assay in all cases: inhibition of tumour cell growth, NCI panel, 48 h
# [1] = test system: A498
# [2] = test system: HCC 2998
# [3] = test system: HCT-116
# [4] = test system: HCT-15
# [5] = test system: KM12
# [6] = test system: M14
# [7] = test system: MDA-MB-231
# [8] = test system: MDA-MB-435
# [9] = test system: Malme-3M
# [10] = test system: OVCAR-3
# [11] = test system: OVCAR-5
# [12] = test system: PC-3
# [13] = test system: SF-268
# [14] = test system: SK-MEL-5
# [15] = test system: SNB-19
# [16] = test system: SNB-75
# [17] = test system: U-251
# [18] = test system: UACC-257
# [19] = test system: UACC-62
# [20] = test system: UO-31
Compound,GI50 [1],GI50 [2],GI50 [3],GI50 [4] [µM],GI50 [5],GI50 [6],GI50 [7],GI50 [8],GI50 [9],GI50 [10],GI50 [11],GI50 [12],GI50 [13],GI50 [14],GI50 [15],GI50 [16],GI50 [17],GI50 [18],GI50 [19],GI50 [20]
COc1ccc(/C=C/C(=O)Oc2ccc(/C=C3\CCCCC3=O)cc2)cc1,> 100 µM (inactive),> 39.1 µM (inactive),9.33 µM (inactive),29.1,56.1 µM (inactive),> 100 µM (inactive),40.9 µM (inactive),> 44.6 µM (inactive),> 79.1 µM (inactive),> 100 µM (inactive),> 100 µM (inactive),> 100 µM (inactive),8 µM (inactive),> 100 µM (inactive),> 66.1 µM (inactive),> 88.3 µM (inactive),> 94.6 µM (inactive),> 67.8 µM (inactive),2.96 µM (inactive),> 100 µM (inactive)
O=[N+]([O-])c1cccc2nc3ccccc3c(NCCO)c12,0.00383 µM (active),0.00166 µM (active),0.00202 µM (active),0.00133,0.00366 µM (active),0.000243 µM (active),0.00215 µM (active),0.00179 µM (active),0.00331 µM (active),0.000486 µM (active),0.00219 µM (active),0.00378 µM (active),0.00326 µM (active),0.00286 µM (active),0.00977 µM (active),0.00164 µM (active),0.00281 µM (active),0.00421 µM (active),0.00237 µM (active),0.00244 µM (active)
Cc1cn([C@@H]2O[C@H](CO[Si](C)(C)C(C)(C)C)[C@]3(O[C@H]3C(=O)NN)[C@H]2O[Si](C)(C)C(C)(C)C)c(=O)[nH]c1=O,16.9 µM (inactive),3.13 µM (inactive),4.08 µM (inactive),4.32,7.67 µM (inactive),7.18 µM (inactive),3.57 µM (inactive),7.11 µM (inactive),3.39 µM (inactive),3.76 µM (inactive),8.55 µM (inactive),4.6 µM (inactive),3.59 µM (inactive),10.4 µM (inactive),7.66 µM (inactive),7.98 µM (inactive),4.23 µM (inactive),13 µM (inactive),10.6 µM (inactive),14.2 µM (inactive)
O=C(Nc1ccc(Cl)cc1)c1cc(S(=O)(=O)NC2=Nc3ccc(Cl)cc3C(c3ccccc3)N2)c(SSc2cc(Cl)c(C(=O)Nc3ccc(Cl)cc3)cc2S(=O)(=O)NC2=Nc3ccc(Cl)cc3C(c3ccccc3)N2)cc1Cl (stereo not given),> 100 µM (inactive),> 100 µM (inactive),> 100 µM (inactive),> 100,> 100 µM (inactive),46.1 µM (inactive),24.3 µM (inactive),> 100 µM (inactive),> 100 µM (inactive),> 100 µM (inactive),83.4 µM (inactive),> 100 µM (inactive),> 100 µM (inactive),> 73.3 µM (inactive),> 100 µM (inactive),> 100 µM (inactive),> 100 µM (inactive),> 100 µM (inactive),> 90.4 µM (inactive),> 100 µM (inactive)
COc1cc(-c2cc(=O)c3cc4c(=O)cc(-c5cc(OC)c(OC)c(OC)c5)oc4cc3o2)cc(OC)c1OC,24.7 µM (inactive),> 100 µM (inactive),30.9 µM (inactive),> 100,> 100 µM (inactive),60.3 µM (inactive),> 39 µM (inactive),> 100 µM (inactive),43.2 µM (inactive),> 87.1 µM (inactive),> 100 µM (inactive),> 100 µM (inactive),23.5 µM (inactive),> 100 µM (inactive),16.4 µM (inactive),13.5 µM (inactive),8.59 µM (inactive),> 83.6 µM (inactive),13.9 µM (inactive),> 100 µM (inactive)
C[C@]12C=CC(=O)C=C1CC[C@@H]1[C@@H]2CC[C@@]2(C)[C@H]1CC[C@]2(O)C(N)=O,> 100 µM (inactive),> 100 µM (inactive),> 100 µM (inactive),> 100,> 100 µM (inactive),> 100 µM (inactive),> 100 µM (inactive),> 100 µM (inactive),> 100 µM (inactive),> 100 µM (inactive),> 100 µM (inactive),> 100 µM (inactive),> 100 µM (inactive),> 100 µM (inactive),> 100 µM (inactive),> 100 µM (inactive),> 100 µM (inactive),50.8 µM (inactive),> 100 µM (inactive),> 100 µM (inactive)
COc1c(O)c(O)cc2c1-c1ccc(OC)c(=O)cc1C(NC(C)=O)CC2 (stereo not given),15.5 µM (inactive),5.38 µM (inactive),3.94 µM (inactive),30.6,3.43 µM (inactive),3.78 µM (inactive),4.94 µM (inactive),1.6 µM (inactive),5.7 µM (inactive),2.21 µM (inactive),40 µM (inactive),6.62 µM (inactive),5.52 µM (inactive),2.52 µM (inactive),5.51 µM (inactive),4.24 µM (inactive),4.03 µM (inactive),7.26 µM (inactive),4.36 µM (inactive),56.1 µM (inactive)
CCNCC(=O)O[C@]1(CC)C(=O)OCc2c1cc1n(c2=O)Cc2cc3ccccc3nc2-1,0.661 µM (active),1.04 µM (active),0.342 µM (active),1.85,0.778 µM (active),0.163 µM (active),6.71 µM (inactive),1.36 µM (inactive),1.49 µM (inactive),2.07 µM (inactive),0.811 µM (active),0.741 µM (active),0.0767 µM (active),0.267 µM (active),0.108 µM (active),0.284 µM (active),0.0614 µM (active),0.585 µM (active),0.0468 µM (active),0.158 µM (active)
COC(=O)C1(C)CCc2c(ccc3ccccc23)C1=O (stereo not given),32.7 µM (inactive),36.1 µM (inactive),33.7 µM (inactive),34.5,25.8 µM (inactive),29.9 µM (inactive),49.1 µM (inactive),34.4 µM (inactive),27.8 µM (inactive),30.1 µM (inactive),> 100 µM (inactive),40.9 µM (inactive),32.1 µM (inactive),18.3 µM (inactive),45.2 µM (inactive),44.8 µM (inactive),46.5 µM (inactive),24.5 µM (inactive),32.4 µM (inactive),33.3 µM (inactive)
C=CCOc1ccc(C(/N=N\c2ccc(Cl)cc2)=N/NC(=O)c2ccccc2)cc1OC,> 100 µM (inactive),39 µM (inactive),64.4 µM (inactive),80.7,38.5 µM (inactive),73.5 µM (inactive),> 100 µM (inactive),34.7 µM (inactive),51.3 µM (inactive),62.7 µM (inactive),> 100 µM (inactive),49.5 µM (inactive),> 100 µM (inactive),29.9 µM (inactive),> 100 µM (inactive),60.3 µM (inactive),57.3 µM (inactive),41.8 µM (inactive),23.8 µM (inactive),54.8 µM (inactive)
COc1cc2c(cc1OC)C1Cc3ccccc3CCN1CC2 (stereo not given),> 100 µM (inactive),44 µM (inactive),39.1 µM (inactive),> 100,> 100 µM (inactive),> 100 µM (inactive),> 100 µM (inactive),> 100 µM (inactive),> 100 µM (inactive),> 100 µM (inactive),> 100 µM (inactive),62.1 µM (inactive),> 100 µM (inactive),58.1 µM (inactive),> 100 µM (inactive),68.5 µM (inactive),> 100 µM (inactive),> 100 µM (inactive),> 100 µM (inactive),27.2 µM (inactive)
COCC(=O)OC1CCn2c1nc1c2C(=O)C(C)=C(NC(C)=O)C1=N (stereo not given),18.5 µM (inactive),13.7 µM (inactive),3.08 µM (inactive),8.13,14.2 µM (inactive),4.95 µM (inactive),3.27 µM (inactive),1.66 µM (inactive),1.38 µM (inactive),2.03 µM (inactive),9.91 µM (inactive),2.58 µM (inactive),5.19 µM (inactive),2.42 µM (inactive),17.9 µM (inactive),15.3 µM (inactive),5.38 µM (inactive),2.43 µM (inactive),1.66 µM (inactive),11.6 µM (inactive)
CCN(CC)C(=O)CCNC(C)Cc1c[nH]c2ccccc12 (stereo not given),> 100 µM (inactive),> 100 µM (inactive),> 100 µM (inactive),> 100,> 100 µM (inactive),> 100 µM (inactive),> 100 µM (inactive),> 100 µM (inactive),> 100 µM (inactive),> 100 µM (inactive),> 100 µM (inactive),> 100 µM (inactive),> 100 µM (inactive),> 100 µM (inactive),> 100 µM (inactive),> 100 µM (inactive),> 100 µM (inactive),> 100 µM (inactive),> 100 µM (inactive),> 100 µM (inactive)
COc1cc(C2c3[nH]c4ccccc4c3C[C@H]3COC(=O)N23)cc(OC)c1OC (stereo not given in full),0.0745 µM (active),0.131 µM (active),0.0416 µM (active),0.0471,0.0552 µM (active),0.0611 µM (active),0.815 µM (active),0.0213 µM (active),0.0453 µM (active),0.0307 µM (active),0.112 µM (active),0.0411 µM (active),0.132 µM (active),0.0266 µM (active),0.0803 µM (active),0.0923 µM (active),0.0445 µM (active),0.0321 µM (active),0.0348 µM (active),0.0431 µM (active)
